Data: paper PMC11077050 (2024)

Assays:
[1] = system: 15N-labeled RNA 2 (RNA, riboswitch) CCGGCAUAGCUUGUCCUUUAAUGGUCCUAUGUCGAAAAUG; experiment: 1H NMR imino proton titration; conditions: Na+ (25 mM NaCl, 15 mM sodium phosphate); pH 6.5, 15 °C, 10% D2O, 280 μM RNA, 0-4.5 equivalents; slow exchange in 0-1 equivalent range
[2] = system: RNA 2 (RNA, riboswitch) CCGGCAUAGCUUGUCCUUUAAUGGUCCUAUGUCGAAAAUG; experiment: native ESI MS with CAD top-down MS (FT-ICR); conditions: NH4+ 50 mM (ammonium bicarbonate), no divalent ions; 9:1 H2O/CH3OH, 0.25 mM piperazine, pH ~7.5; 1 μM RNA, 1-5 μM neomycin B; fourth molecule unspecific
[3] = system: RNA 3 (RNA, riboswitch) CCGUCAUAGCUUGUCCUUUAAUGGUCCUAUGACGAAAAUG; experiment: native ESI MS with CAD top-down MS (FT-ICR); conditions: NH4+ 50 mM (ammonium bicarbonate), no divalent ions; 9:1 H2O/CH3OH, 0.25 mM piperazine, pH ~7.5; 1 μM RNA, 1-5 μM neomycin B
[4] = system: RNA 4 (RNA, riboswitch) CCCUGAUAGCUUGUCCUUUAAUGGUCCUAUCUGGAAAAUG; experiment: native ESI MS with CAD top-down MS (FT-ICR); conditions: NH4+ 50 mM (ammonium bicarbonate), no divalent ions; 9:1 H2O/CH3OH, 0.25 mM piperazine, pH ~7.5; 1 μM RNA, 1-5 μM neomycin B
[5] = system: RNA 5 (RNA, riboswitch) CCGGCAUAGCUUCUCCUUUAAUGGUCCUAUGUCGAAAAUG; experiment: native ESI MS with CAD top-down MS (Orbitrap); conditions: motif C occupancy reduced to ~60% in 1:3 complexes

Measured: binding

NC[C@@H]1O[C@H](O[C@H]2[C@@H](O)[C@H](O[C@@H]3[C@@H](O)[C@H](N)C[C@H](N)[C@H]3O[C@H]3O[C@H](CN)[C@@H](O)[C@H](O)[C@H]3N)O[C@@H]2CO)[C@H](N)[C@@H](O)[C@@H]1O
yes: all assays above
